Reference: PubChem BioAssay (NCI)
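Method: 48-hour compound exposure of cells in 96-well plates, five concentrations, linear interpolation of endpoints. At the TGI there is no net growth.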

How the values were obtained:
Experiment in all cases: NCI tumour cell line growth inhibition, 48 h
SNB-78 CNS = system: SNB-78 CNS
LXFL 529 NSCLC = system: LXFL 529 NSCLC
DLD-1 colon = system: DLD-1 colon
XF 498 CNS = system: XF 498 CNS
DMS 114 small cell lung = system: DMS 114 small cell lung
RXF-631 renal = system: RXF-631 renal
HOP-18 NSCLC = system: HOP-18 NSCLC
DMS 273 small cell lung = system: DMS 273 small cell lung
P388 leukemia = system: P388 leukemia
SN12K1 renal = system: SN12K1 renal
P388/ADR leukemia = system: P388/ADR leukemia

SMILES | TGI (SNB-78 CNS) [µM] | TGI (LXFL 529 NSCLC) [µM] | TGI (DLD-1 colon) [µM] | TGI (XF 498 CNS) [µM] | TGI (DMS 114 small cell lung) [µM] | TGI (RXF-631 renal) [µM] | TGI (HOP-18 NSCLC) [µM] | TGI (DMS 273 small cell lung) [µM] | TGI (P388 leukemia) [µM] | TGI (SN12K1 renal) [µM] | TGI (P388/ADR leukemia) [µM]
N=C1SCCS1 | > 100 | > 100 | > 100 | > 100 | > 100 | – | – | – | – | – | –
CC(C)=CCC/C(C)=C/CC/C(C)=C/C(O)c1ccccc1 (centres undefined) | 68 | 31.8 | 34.4 | – | 39.4 | 34.1 | – | – | – | – | –
NC(=O)OCc1c(O)c2c(c(O)c1COC(N)=O)C(=O)C=CC2=O | > 100 | > 100 | > 100 | – | > 100 | – | > 100 | > 100 | – | – | –
CC(C)c1cccc(C(C)C)c1NC(=S)Nc1ccccc1 | > 100 | > 100 | > 100 | – | > 100 | > 100 | > 100 | > 100 | – | – | –
CSc1nc(NC2OC(CO)C(O)C(O)C2O)c(N)c(=O)n1C (centres undefined) | > 100 | – | > 100 | > 100 | > 100 | – | > 100 | > 100 | > 100 | > 100 | > 100
CCN(CC)CCSc1nc2c([N+](=O)[O-])cccc2[nH]1 | > 100 | > 100 | – | > 100 | > 100 | > 100 | – | > 100 | – | – | –
CC[n+]1c(/C=C/c2ccc(N(CCCl)CCCl)cc2)ccc2cc(Br)ccc21 | 15.4 | 1.99 | 16.1 | 1.18 | 15.2 | – | 19.6 | – | – | – | –
